# From PubChem BioAssay (NCI)
#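 In this assay, cells in 96-well plates receive the compound at five concentrations for 48 hours. Endpoints are linearly interpolated between the surrounding concentrations. The concentration for full growth arrest is given as TGI.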
# Tested on: MOLT-4 leukemia
# Experiment: NCI tumour cell line growth inhibition, 48 h
row,Structure (SMILES),TGI [µM]
1,CC(CC[C@@]1(C)C(=O)CCC2O[C@]21C)[C@H]1C[C@@H](c2ccoc2)OC1=O (stereo partly drawn),84.7
2,O=Cc1ccccc1COC(=O)c1cc(C(=O)OCc2ccccc2C=O)c(C(=O)OCc2ccccc2C=O)cc1C(=O)OCc1ccccc1C=O,> 100
3,CCOC1=NC(O)c2cccn2-c2sccc21 (stereo not drawn),> 100
4,COC(=O)c1cc2c(cc1CC(Cc1ccc3c(c1)CCCC3)C(=O)OC)CCCC2 (stereo not drawn),> 100
5,O=C1c2ccsc2C(=O)c2sc(CO)cc21,> 100
6,O=C(c1cccs1)N1CCc2ccccc2C1,> 100
7,CC1S/C(=N\N=C2/C(=O)Nc3ccc(Br)cc32)N(C2CCCCC2)C1=O (stereo not drawn),> 100
8,CN(C)CC1CCCC(CN(C)C)C1OC(=O)c1ccccc1 (stereo not drawn),> 100
9,CCCCC1Cc2ccccc2-c2nc3ccccc3n21 (stereo not drawn),32.9
10,Cc1cc(N(CCC#N)CCC#N)ccc1/C=C(\NC(=O)/C=C/c1ccccc1)C(N)=O,> 100
11,CCC(=O)Oc1ccc2c(c1)c(=O)c1c(NCCCN(C)C)ccc3nnn2c31,5.69
12,Cc1ccc(S(=O)(=O)N/N=C2/CCCOC2)cc1,> 100
13,C[Si](C)(C)OC1CC(=O)OC1n1cc(F)c(=O)[nH]c1=O (stereo not drawn),> 100
14,CCOC(=O)C1C(=O)CC1(C)C (stereo not drawn),> 10

# Tested on: PC-3 prostate
# Experiment: NCI tumour cell line growth inhibition, 48 h
row,Structure (SMILES),TGI [µM]
1,O=C(N/N=C\C=C\c1ccc([N+](=O)[O-])o1)C(=O)N/N=C\C=C\c1ccc([N+](=O)[O-])o1,> 100
2,Nc1nc(-c2ccccc2)cc(-c2ccc(OCc3ccccc3)cc2O)n1,> 100
3,CCOC(=O)c1cn2c(n1)sc1cc(Cl)ccc12,> 100
4,CCN1CCN(c2nc3ccccc3c3c2CCOc2ccccc2-3)CC1,> 90.9
5,O=C(NCP(=O)(c1ccccc1)c1ccccc1)OCc1ccccc1,> 100
6,CCOC(C)O[C@H]1C(=O)OCC1(C)C (stereo partly drawn),> 100
7,CC(CC[C@@]1(C)C(=O)CCC2O[C@]21C)[C@H]1C[C@@H](c2ccoc2)OC1=O (stereo partly drawn),> 100
8,CCOC1=NC(O)c2cccn2-c2sccc21 (stereo not drawn),> 100
9,COC(=O)c1cc2c(cc1CC(Cc1ccc3c(c1)CCCC3)C(=O)OC)CCCC2 (stereo not drawn),> 100
10,O=C1c2ccsc2C(=O)c2sc(CO)cc21,1.78
11,O=C(c1cccs1)N1CCc2ccccc2C1,> 100
12,CC1S/C(=N\N=C2/C(=O)Nc3ccc(Br)cc32)N(C2CCCCC2)C1=O (stereo not drawn),19.9
13,CCCCC1Cc2ccccc2-c2nc3ccccc3n21 (stereo not drawn),22.1
14,CCC(=O)Oc1ccc2c(c1)c(=O)c1c(NCCCN(C)C)ccc3nnn2c31,16.1
15,Cc1ccc(S(=O)(=O)N/N=C2/CCCOC2)cc1,> 100
16,CCOC(=O)C1C(=O)CC1(C)C (stereo not drawn),> 10

# Tested on: RPMI-8226 leukemia
# Experiment: NCI tumour cell line growth inhibition, 48 h
row,Structure (SMILES),TGI [µM]
1,O=c1cc(-c2ccc(Oc3ccccc3)cc2)[nH]c2cc3c(cc12)OCO3,> 100
2,CCOC(=O)CC(C)C1(C(=O)OCC)CCCCC1=O (stereo not drawn),60.6
3,O=C(N/N=C\C=C\c1ccc([N+](=O)[O-])o1)C(=O)N/N=C\C=C\c1ccc([N+](=O)[O-])o1,> 100
4,CC(=O)O[C@H]1C(=O)[C@@]2(C)C(C(OC(=O)c3ccccc3)[C@]3(O)CC(OC(=O)C(O)C(NC(=O)c4ccc(C(F)(F)F)cc4)c4ccccc4)C(C)=C1C3(C)C)[C@]1(OC(C)=O)CO[C@@H]1C[C@@H]2O (stereo partly drawn),5.88
5,COC(=O)CC1N=C(NC#N)N(CCc2c[nH]c3ccccc23)C1=O (stereo not drawn),> 100
6,Nc1nc(-c2ccccc2)cc(-c2ccc(OCc3ccccc3)cc2O)n1,60.9
7,CCOC(=O)c1cn2c(n1)sc1cc(Cl)ccc12,> 100
8,Cn1c(O)c(C(=O)NC2CCCCC2)c(=O)n(C)c1=S,17.2
9,CCN1CCN(c2nc3ccccc3c3c2CCOc2ccccc2-3)CC1,50
10,Nc1nc([O-])c2c(n1)[n+](C1OC(CO)C(O)C1O)cn2CCO (stereo not drawn),> 100
11,O=C(NCP(=O)(c1ccccc1)c1ccccc1)OCc1ccccc1,> 100
12,CCOC(C)O[C@H]1C(=O)OCC1(C)C (stereo partly drawn),> 100
13,CC(CC[C@@]1(C)C(=O)CCC2O[C@]21C)[C@H]1C[C@@H](c2ccoc2)OC1=O (stereo partly drawn),88.7
14,O=Cc1ccccc1COC(=O)c1cc(C(=O)OCc2ccccc2C=O)c(C(=O)OCc2ccccc2C=O)cc1C(=O)OCc1ccccc1C=O,> 100
15,CCOC1=NC(O)c2cccn2-c2sccc21 (stereo not drawn),> 100
16,COC(=O)c1cc2c(cc1CC(Cc1ccc3c(c1)CCCC3)C(=O)OC)CCCC2 (stereo not drawn),91.4
17,O=C(c1cccs1)N1CCc2ccccc2C1,> 100
18,CC1S/C(=N\N=C2/C(=O)Nc3ccc(Br)cc32)N(C2CCCCC2)C1=O (stereo not drawn),> 100
19,CN(C)CC1CCCC(CN(C)C)C1OC(=O)c1ccccc1 (stereo not drawn),> 100
20,CCCCC1Cc2ccccc2-c2nc3ccccc3n21 (stereo not drawn),32.5
21,Cc1cc(N(CCC#N)CCC#N)ccc1/C=C(\NC(=O)/C=C/c1ccccc1)C(N)=O,> 100
22,CCC(=O)Oc1ccc2c(c1)c(=O)c1c(NCCCN(C)C)ccc3nnn2c31,7.16
23,Cc1ccc(S(=O)(=O)N/N=C2/CCCOC2)cc1,> 100
24,C[Si](C)(C)OC1CC(=O)OC1n1cc(F)c(=O)[nH]c1=O (stereo not drawn),40.4
25,CCOC(=O)C1C(=O)CC1(C)C (stereo not drawn),> 10

# Tested on: SF-268 CNS
# Experiment: NCI tumour cell line growth inhibition, 48 h
row,Structure (SMILES),TGI [µM]
1,O=c1cc(-c2ccc(Oc3ccccc3)cc2)[nH]c2cc3c(cc12)OCO3,> 100
2,CCOC(=O)CC(C)C1(C(=O)OCC)CCCCC1=O (stereo not drawn),> 100
3,O=C(N/N=C\C=C\c1ccc([N+](=O)[O-])o1)C(=O)N/N=C\C=C\c1ccc([N+](=O)[O-])o1,> 100
